Experimental findings from patent US6878742B2, “Heterocyclic sulfonamide inhibitors of beta amyloid production” (Wyeth, priority 2000, dated 2005) are described below.

Several values for one entry are separate records, joined by “and”; a condition that tells them apart may be missing. Equal values may be shown once. Read-outs that look alike come from different tables or passages of the source.

In this assay the test system is amyloid precursor protein (APP) proteolysis. Description: Repressor Release Assay (RRA). Format: cell-based. The protocol: The beta amyloid inhibitory activity of many of the compounds of the present invention has been determined using the Repressor Release Assay (RRA). See, Table 23 below. A compound is considered active in RRA if it leads to at least a 1.5 fold increase in luciferase activity at 20 μM and is non-toxic.
The compounds generated as described in Examples 1 through 220 were tested in the RRA in accordance with published techniques [Shuey, D. J., Sheiffele, P., Jones, D., Cockett, M. I., and Quinet, E. M. (1999), “Repressor release: a useful tool for monitoring amyloid precursor protein (APP) proteolysis in mammalian cells”, Society for Neuroscience Abstracts, Vol. 25, 29th Annual Meeting of Society for Neuroscience, Miami Beach, Fla., Oct. 23-28, 1999]. Briefly, this assay is performed as follows.
CHO-K1 cells are cultured in whole DMEM media (DMEM—High Glucose with 10% fetal bovine serum, 1% Non-essential Amino Acids, and 1% Penicillin-Streptomycin) at 37° C. with 5% CO2. Two million cells are plated into 10-cm dishes 24 hrs prior to transfection.
Transient transfections are completed as recommended by Gibco BRL using their Lipofectamine Plus system. First, 6 μg of pRSVO-luc and 6 μg of APP-lacI construct DNA are added to 460 μL Opti-Mem transfection media and incubated with 30 μL Plus reagent for 15 minutes. Then, a lipid mixture of 40 μL Lipofectamine reagent and 460 μL Opti-Mem transfection media is incubated with the DNA-Plus reagent mixture for 15 minutes. During the DNA-lipid incubation, the CHO-K1 cells are washed once and covered in 5.0 mL DMEM media without Penicillin-Streptomycin. The DNA-lipid preparation is then layered onto these cells and incubated at 37° C. overnight.
One and one half million transfected cells per well (100 μL total volume) are plated into sterile, opaque Packard 96-well Cultur-Plates in clear DMEM whole media (DMEM—without phenol red) and incubated at 37° C. with 5% CO2 for 3-5 hours.
Compounds are diluted using two different protocols; one protocol is used for compounds supplied neat (weighed powder in vial) and the other protocol is used for compounds supplied in solution (20 mM in DMSO in 96-well plates). For both protocols, 25 mM Hepes and 25 mM Hepes/1% DMSO are prepared fresh to be used as diluent. The Hepes/DMSO is used as the diluent control on all experimental plates.
The following table depicts the steps for compound dilution (please note that the last step is the addition of compound to cells/media in tissue culture plate):
Because some compounds arrive in 96-well format at 20 mM, the following represents the protocol for their dilution (note that an average molecular weight of these compounds was used to calculate these dilutions and as above, the last step is the addition of compound to cells/media in tissue culture plate):
Once compounds are diluted, they are applied in duplicate on cells in tissue culture plates (prepared above). Cells are incubated with compound at 37° C. with 5% CO2 for an additional 36-48 hours.
Luciferase assays (LucLite reagent, Packard) are performed and are read on a Packard TopCount instrument. Media is removed from each 96-well plate and replaced with 100 μL PBS per well (with Mg^2+ and Ca^2+). An equal volume (100 μL) of the LucLite lysis/substrate buffer is added to each well and the plates are sealed and mixed in the dark on a rotary shaker for 15-30 minutes at room temperature. Luciferase readings are then taken on the TopCount instrument. Measurements are expressed as relative light units (RLU) and are calculated and analyzed in MS Excel as follows.
A compound is considered active in RRA if it leads to at least a 1.5 fold increase in luciferase activity at 20 μM and is non-toxic, as determined by loss of signal (≦0.75 fold increase). Fold increase is the amount of luciferase activity (measured in relative light units) over diluent control. SEM represents the standard error of the mean for fold increase (not shown).

The mark [1] stands for this setting: Conc 1 μg/mL, luciferase activity over diluent control.
Where [2] appears, read: Conc 3 μg/mL, luciferase activity over diluent control.
[3] abbreviates: Conc 10 μg/mL, luciferase activity over diluent control.
Setting [4] is: Conc 20 μg/mL, luciferase activity over diluent control, read-out: APPI Fold Increase.

As to `CC[C@@H](C)[C@@H](CO)NS(=O)(=O)c1ccc(Cl)s1` [Example 16], the “APPI Fold Increase” value runs as follows: (Conc 0.3 μg/mL, luciferase activity over diluent control) 1.7 fold; under setting [1], 1.9 fold and 2.56 fold; under setting [2], 3.1 fold and 4.47 fold; under setting [3], 4.19 fold and 3.2 fold. As to `CC[C@@H](C)[C@@H](CO)NS(=O)(=O)c1ccc(Br)s1` [Example 17], the “APPI Fold Increase” value reads like this: under setting [1], 2.38 fold; under setting [2], 3.47 fold; under setting [3], 3.29 fold; (Conc 20 μg/mL, luciferase activity over diluent control) 6.1 fold and 3.5 fold.

Regarding `CC[C@H](C)[C@@H](CO)NS(=O)(=O)C1=CC=C(Br)S1(=O)=O` [Example 18, 5-Bromo-N-[(1S,2S)-1-(hydroxymethyl)-2-methylbutyl]thiophene-2-sulfonamide 1,1-dioxide], the fold induction at 3 µg/mL (Conc 3 μg/mL, luciferase activity over diluent control, read-out: APPI Fold Increase) amounted to 2.19. In addition, where the note is “Conc 10 μg/mL, luciferase activity over diluent control, read-out: APPI Fold Increase”, the fold induction at 10 µg/mL was 5.23. Besides, the fold induction at 20 µg/mL under setting [4] is 5.7. With `CCC(C)C(C)C(CO)NS(=O)(=O)c1ccc(Cl)s1` (stereo not drawn) [Example 19, 5-Chloro-N-[1-(hydroxymethyl)-2,3-dimethylpentyl]thiophene-2-sulfonamide], under setting [4], the fold induction at 20 µg/mL came out at 6.

For `CCCC(C)C(CO)NS(=O)(=O)c1ccc(Cl)s1` (stereo not drawn) [Example 20, 5-chloro-N-[1-(hydroxymethyl)-2-methylpentyl]thiophene-2-sulfonamide], under “read-out: APPI Fold Increase”, the fold induction at 20 µg/mL stood at 5.

Turning to `CCCCC(CC)C(CO)NS(=O)(=O)c1ccc(Cl)s1` (stereo not drawn) [Example 21, 5-chloro-N-[2-ethyl-1-(hydroxymethyl)hexyl]thiophene-2-sulfonamide], the fold induction at 20 µg/mL (read-out: APPI Fold Increase) stood at 3.3. For `CC1=CC(C)C(C(CO)NS(=O)(=O)c2ccc(Cl)s2)C(C)C1` (stereo not drawn) [Example 22, 5-chloro-N-[2-hydroxy-1-(2,4,6-trimethylcyclohex-3-en-1-yl)ethyl]thiophene-2-sulfonamide], the fold induction at 20 µg/mL (read-out: APPI Fold Increase) turned out to be 7. Same read-out and setting: for `O=S(=O)(NC(CO)C1CC=CCC1)c1ccc(Cl)s1` (stereo not drawn) [Example 23, 5-chloro-N-(1-cyclohex-3-en-1-yl-2-hydroxyethyl)thiophene-2-sulfonamide] the value was 6.4.

With `O=S(=O)(NC(CO)C1CCCC1)c1ccc(Cl)s1` (stereo not drawn) [Example 24, 5-chloro-N-(1-cyclopentyl-2-hydroxyethyl)thiophene-2-sulfonamide], the fold induction at 20 µg/mL (read-out: APPI Fold Increase) is 6. `CC(C)[C@@](C)(CO)NS(=O)(=O)c1ccc(Br)s1` [Example 25, 5-Bromo-N-[(1S)-1-(hydroxymethyl)-1,2-dimethylpropyl]thiophene-2-sulfonamide]: the fold induction at 20 µg/mL under setting [4] came to 7.5. On the same count and under the same terms, for `CC(C)[C@@](C)(CO)NS(=O)(=O)c1ccc(Cl)s1` [Example 26, 5-chloro-N-[(1S)-1-(hydroxymethyl)-1,2-dimethylpropyl]thiophene-2-sulfonamide] the value was 5; for `CC(C)C[C@@H](C)[C@@H](CO)NS(=O)(=O)c1ccc(Cl)s1` [Example 27, 5-Chloro-N-[(1S,2R)-1-(hydroxymethyl)-2,4-dimethylpentyl]thiophene-2-sulfonamide], 8.7; for `COc1ccc([C@@H](C)[C@@H](CO)NS(=O)(=O)c2ccc(Cl)s2)cc1` [Example 28, 5-chloro-N-[(1S,2R)-1-(hydroxymethyl)-2-(4-methoxyphenyl)propyl]thiophene-2-sulfonamide], 7. Still for that read-out and setting: for `CCCCCC[C@@H](C)[C@@H](CO)NS(=O)(=O)c1ccc(Cl)s1` [Example 29, 5-chloro-N-[(1S,2R)-1-(hydroxymethyl)-2-methyloctyl]thiophene-2-sulfonamide] the value was 2.6. On the same count and under the same terms, for `CC[C@H](CC(C)C)[C@@H](CO)NS(=O)(=O)c1ccc(Cl)s1` [Example 31, 5-chloro-N-[(1S,2R)-2-ethyl-1-(hydroxymethyl)-4-methylpentyl]thiophene-2-sulfonamide] the value was 4.4. `CC[C@H](c1ccc(OC)cc1)[C@@H](CO)NS(=O)(=O)c1ccc(Cl)s1` [Example 32, 5-chloro-N-[(1S,2R)-1-(hydroxymethyl)-2-(4-methoxyphenyl)butyl]thiophene-2-sulfonamide]: under setting [4], the fold induction at 20 µg/mL turned out to be 5. Take `CCC[C@H](C)[C@@H](CO)NS(=O)(=O)c1ccc(Cl)s1` [Example 33, 5-chloro-N-[(1S,2S)-1-(hydroxymethyl)-2-methylpentyl]thiophene-2-sulfonamide]: under setting [4], the fold induction at 20 µg/mL came to 6.5. Regarding `CCC[C@H](CC)[C@@H](CO)NS(=O)(=O)c1ccc(Cl)s1` [Example 34, 5-chloro-N-[(1S,2S)-2-ethyl-1-(hydroxymethyl)pentyl]thiophene-2-sulfonamide], the fold induction at 20 µg/mL under setting [4] amounted to 5.9. Still for that read-out and setting: to `CCC[C@H](CC(C)C)[C@@H](CO)NS(=O)(=O)c1ccc(Cl)s1` [Example 35, 5-chloro-N-[(1S,2R)-1-(hydroxymethyl)-4-methyl-2-propylpentyl]thiophene-2-sulfonamide] belongs 3.7; to `CCC[C@H](c1ccc(OC)cc1)[C@@H](CO)NS(=O)(=O)c1ccc(Cl)s1` [Example 36, 5-chloro-N-[(1S,2R)-1-(hydroxymethyl)-2-(4-methoxyphenyl)pentyl]thiophene-2-sulfonamide], 3.8. `CCCCCC[C@@H](CCC)[C@@H](CO)NS(=O)(=O)c1ccc(Cl)s1` [Example 37, 5-chloro-N-[(1S,2R)-1-(hydroxymethyl)-2-propyloctyl]thiophene-2-sulfonamide]: under setting [4], the fold induction at 20 µg/mL came to 4.8. For `CCC[C@H](c1ccccc1)[C@@H](CO)NS(=O)(=O)c1ccc(Cl)s1` [Example 38, 5-chloro-N-[(1S,2R)-1-(hydroxymethyl)-2-phenylpentyl]thiophene-2-sulfonamide], the fold induction at 20 µg/mL under setting [4] came out at 4.1. On the same count and under the same terms, for `CCCCC[C@H](C)[C@@H](CO)NS(=O)(=O)c1ccc(Cl)s1` [Example 39, 5-chloro-N-[(1S,2S)-1-(hydroxymethyl)-2-methylheptyl]thiophene-2-sulfonamide] the value was 5.7. Same read-out and setting: for `CCCC(CCC)[C@@H](CO)NS(=O)(=O)c1ccc(Cl)s1` [Example 40, 5-chloro-N-[(1S)-2-propyl-1-(hydroxymethyl)pentyl]thiophene-2-sulfonamide] the value was 3.9; for `CCCCC[C@H](CC)[C@@H](CO)NS(=O)(=O)c1ccc(Cl)s1` [Example 41, 5-chloro-N-[(1S,2S)-2-ethyl-1-(hydroxymethyl)heptyl]thiophene-2-sulfonamide], 4.7; for `CCCCC[C@H](CC(C)C)[C@@H](CO)NS(=O)(=O)c1ccc(Cl)s1` [Example 42, 5-chloro-N-[(1S,2R)-1-(hydroxymethyl)-2-isobutylheptyl]thiophene-2-sulfonamide], 3.4. Still for that read-out and setting: to `CCCCC[C@H](c1ccc(OC)cc1)[C@@H](CO)NS(=O)(=O)c1ccc(Cl)s1` [Example 43, 5-chloro-N-[(1S,2R)-1-(hydroxymethyl)-2-(4-methoxyphenyl)heptyl]thiophene-2-sulfonamide] belongs 1.7.

Regarding `CCCCCC[C@@H](CCCCC)[C@@H](CO)NS(=O)(=O)c1ccc(Cl)s1` [Example 44, 5-chloro-N-[(1S,2R)-1-(hydroxymethyl)-2-pentyloctyl]thiophene-2-sulfonamide], under setting [4], the fold induction at 20 µg/mL is 1.6.
